What was measured:
[1] = biological target: T1, estrogen receptor (ER) (Homo sapiens, UniProt P03372); details: infected MCF7 cells
T1 sequence (P03372 1-595): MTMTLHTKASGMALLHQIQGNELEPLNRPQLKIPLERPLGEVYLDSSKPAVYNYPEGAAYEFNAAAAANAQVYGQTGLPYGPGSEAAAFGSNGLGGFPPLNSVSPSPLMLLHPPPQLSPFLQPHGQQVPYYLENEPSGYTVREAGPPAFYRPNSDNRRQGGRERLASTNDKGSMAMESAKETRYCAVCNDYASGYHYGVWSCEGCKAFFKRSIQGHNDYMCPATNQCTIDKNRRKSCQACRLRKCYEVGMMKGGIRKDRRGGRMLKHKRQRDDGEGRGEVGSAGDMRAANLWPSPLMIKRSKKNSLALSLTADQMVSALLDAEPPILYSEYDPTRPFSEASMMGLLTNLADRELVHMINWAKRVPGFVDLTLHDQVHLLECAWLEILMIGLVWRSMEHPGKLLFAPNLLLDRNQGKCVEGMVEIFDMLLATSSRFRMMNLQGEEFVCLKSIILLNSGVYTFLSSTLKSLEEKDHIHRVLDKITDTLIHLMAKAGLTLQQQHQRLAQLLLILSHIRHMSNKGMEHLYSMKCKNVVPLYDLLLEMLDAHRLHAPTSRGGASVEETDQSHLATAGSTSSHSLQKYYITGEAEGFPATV

[2] = test system: estrogen receptor (ER); test: viral ER reporter in ER negative breast cancer cell lines; format: cell-based, human; details: virus 100:1
Method: FIG. 3: Reporter activity in variety of estrogen receptor alpha positive (MCF-7, T47-D, ZR75-1, BT474) and negative (Cal-51, SkBr3, and MDA-MB231 cell lines). For each figure, the order is as follows: (1) refers to the no ligand control.
For adenovirus infections, cell lines were plated in 96 wells at the given density in phenol red free DMEM supplemented with 5% double-stripped serum (PR/5% DSS). The following day cells were exposed to the given quantity of plaque forming units per cell (multiplicity of infection, MOI) in PR/SF medium. This was incubated at 37° C. for 1 hour after which the media was replaced by PR free/5% DSS containing the ligands.
Reporter Gene Assay 48 hours after virus infection, 20 ul of 20% Triton in PBS was added to each well and incubated at RT for 10 minutes. […] (CRPG) made up in TBS at a concentration of 8 mg/ml was then added to the wells and the plate was incubated, foil-wrapped, at 37° C. until a colour change was observed. Plate readings were taken at a wavelength of 547 nm.
We went on to test the virus reporter in a variety of ER positive and ER negative cell lines. Again 0.5×10^5 cells were infected with 100 virus per cell (100:1). Using the GFP virus it was evident that the infectability of the cell lines was variable. […]

Compound: C[C@]12CC[C@@H]3c4ccc(O)cc4C[C@@H](CCCCCCCCC[S+]([O-])CCCC(F)(F)C(F)(F)F)[C@H]3[C@@H]1CC[C@@H]2O (some centres unmarked) [ICI 182,780]
- β-gal expression by X-gal staining [1]: completely abolished even basal levels of staining
- effect on ERE driven β-gal reporter / baseline activity [2]: did not have a significant effect on the baseline activity

From patent US20050100888A1, “Methods based on hormone dependency of primary cancer cells” (Imperial College Innovations Limited, priority 2002, published 2005)
